The numbers were not newly measured in article PMC3325405 (Amino Acids, 2011), which cites them from elsewhere.

Each structure is given as a SMILES string.

The target in this data set is Klebsiella aerogenes enzyme (urease). The conditions noted are these: read-out: K i, Klebsiella aerogenes urease; ref Todd 1989.

`CC(=O)NO` [AHA, acetohydroxamic acid]: the Ki was 2600 nM.
